Source: ChEMBL document CHEMBL1201862, “PubChem BioAssay data set” (2004)
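Growth conditions: 96-well plates. Treatment: test compound, 48 hours, 5 concentrations. Analysis: linear interpolation between bracketing concentrations; unreached endpoints set to highest concentration. Here, GI50 denotes the concentration required for 50% inhibition of growth.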 Active and inactive are the calls of the source. No stated cut-off is given here; in the data, active = GI50 up to about 1.1 µM and inactive = higher.

What was measured:
Assay in all cases: NCI anticancer screen, dose series, 48 h
786-0 = tested on: 786-0
A498 = tested on: A498
A549 = tested on: A549
ACHN = tested on: ACHN
BT-549 = tested on: BT-549
CAKI-1 = tested on: CAKI-1
CCRF-CEM = tested on: CCRF-CEM
COLO 205 = tested on: COLO 205
DU-145 = tested on: DU-145
EKVX = tested on: EKVX
HCC 2998 = tested on: HCC 2998
HCT-116 = tested on: HCT-116
HCT-15 = tested on: HCT-15
HL-60 = tested on: HL-60
HOP-62 = tested on: HOP-62
HT-29 = tested on: HT-29
Hs-578T = tested on: Hs-578T
IGROV-1 = tested on: IGROV-1
K562 = tested on: K562
KM12 = tested on: KM12
LOX IMVI = tested on: LOX IMVI
M14 = tested on: M14
MCF7 = tested on: MCF7
MDA-MB-231 = tested on: MDA-MB-231
MDA-MB-435 = tested on: MDA-MB-435
MDA-N = tested on: MDA-N
MOLT-4 = tested on: MOLT-4
Malme-3M = tested on: Malme-3M
NCI-H226 = tested on: NCI-H226
NCI-H23 = tested on: NCI-H23
NCI-H460 = tested on: NCI-H460
NCI-H522 = tested on: NCI-H522
NCI/ADR-RES = tested on: NCI/ADR-RES
OVCAR-3 = tested on: OVCAR-3
OVCAR-4 = tested on: OVCAR-4
OVCAR-5 = tested on: OVCAR-5
OVCAR-8 = tested on: OVCAR-8
PC-3 = tested on: PC-3
RPMI-8226 = tested on: RPMI-8226
RXF 393 = tested on: RXF 393
SF-268 = tested on: SF-268
SF-295 = tested on: SF-295
SF-539 = tested on: SF-539
SK-MEL-28 = tested on: SK-MEL-28
SK-MEL-2 = tested on: SK-MEL-2
SK-MEL-5 = tested on: SK-MEL-5
SK-OV-3 = tested on: SK-OV-3
SN12C = tested on: SN12C
SNB-19 = tested on: SNB-19
SNB-75 = tested on: SNB-75
SR = tested on: SR
SW-620 = tested on: SW-620
T47D = tested on: T47D
TK-10 = tested on: TK-10
U-251 = tested on: U-251
UACC-257 = tested on: UACC-257
UACC-62 = tested on: UACC-62
UO-31 = tested on: UO-31

CC(C)C1(C)N=C(C(F)(F)F)c2cc(C(=O)C(F)(F)F)c3ccccc3c2N1 (stereo unspecified)
GI50 (786-0): 3.7 µM (inactive)
GI50 (A498): 14.9 µM (inactive)
GI50 (A549): 5.43 µM (inactive)
GI50 (ACHN): 3.53 µM (inactive)
GI50 (BT-549): 3.08 µM (inactive)
GI50 (CAKI-1): 3.34 µM (inactive)
GI50 (CCRF-CEM): 15.8 µM (inactive)
GI50 (COLO 205): 4.14 µM (inactive)
GI50 (DU-145): 3.71 µM (inactive)
GI50 (EKVX): 4.91 µM (inactive)
GI50 (HCC 2998): 3.69 µM (inactive)
GI50 (HCT-116): 2.94 µM (inactive)
GI50 (HCT-15): 3.23 µM
GI50 (HL-60): 4.62 µM (inactive)
GI50 (HOP-62): 4.9 µM (inactive)
GI50 (HT-29): 3.44 µM (inactive)
GI50 (Hs-578T): 2.5 µM (inactive)
GI50 (IGROV-1): 1.16 µM (inactive)
GI50 (K562): 3.96 µM (inactive)
GI50 (KM12): 3.31 µM (inactive)
GI50 (LOX IMVI): 2.45 µM (inactive)
GI50 (M14): 4.99 µM (inactive)
GI50 (MCF7): 4.03 µM (inactive)
GI50 (MDA-MB-231): 2.73 µM (inactive)
GI50 (MDA-MB-435): 3.21 µM (inactive)
GI50 (MDA-N): 3.04 µM (inactive)
GI50 (MOLT-4): 3.07 µM (inactive)
GI50 (Malme-3M): 3 µM (inactive)
GI50 (NCI-H226): 12.9 µM (inactive)
GI50 (NCI-H23): 2.77 µM (inactive)
GI50 (NCI-H460): 4.41 µM (inactive)
GI50 (NCI-H522): 2.3 µM (inactive)
GI50 (NCI/ADR-RES): 2.78 µM (inactive)
GI50 (OVCAR-3): 3.08 µM (inactive)
GI50 (OVCAR-4): 4.91 µM (inactive)
GI50 (OVCAR-5): 11.2 µM (inactive)
GI50 (OVCAR-8): 4.17 µM (inactive)
GI50 (PC-3): 2.52 µM (inactive)
GI50 (RPMI-8226): 3.53 µM (inactive)
GI50 (RXF 393): 2.71 µM (inactive)
GI50 (SF-268): 3.02 µM (inactive)
GI50 (SF-295): 3.38 µM (inactive)
GI50 (SF-539): 6.5 µM (inactive)
GI50 (SK-MEL-28): 5.22 µM (inactive)
GI50 (SK-MEL-2): 2.51 µM (inactive)
GI50 (SK-MEL-5): 10.7 µM (inactive)
GI50 (SK-OV-3): 15 µM (inactive)
GI50 (SN12C): 2.91 µM (inactive)
GI50 (SNB-19): 4.14 µM (inactive)
GI50 (SNB-75): 2.31 µM (inactive)
GI50 (SR): 4.39 µM (inactive)
GI50 (SW-620): 5.55 µM (inactive)
GI50 (T47D): 3.13 µM (inactive)
GI50 (TK-10): 4.51 µM (inactive)
GI50 (U-251): 2.91 µM (inactive)
GI50 (UACC-257): 6.55 µM (inactive)
GI50 (UACC-62): 4.33 µM (inactive)
GI50 (UO-31): 5.9 µM (inactive)

S=C1SC(=N\c2ccccc2)/C(=N/c2ccccc2)N1c1ccccc1
GI50 (A498): > 100 µM (inactive)
GI50 (BT-549): > 100 µM (inactive)
GI50 (CAKI-1): > 100 µM (inactive)
GI50 (CCRF-CEM): 18.1 µM (inactive)
GI50 (COLO 205): > 100 µM (inactive)
GI50 (DU-145): > 100 µM (inactive)
GI50 (HCC 2998): > 100 µM (inactive)
GI50 (HCT-116): 83.9 µM (inactive)
GI50 (HCT-15): > 100 µM
GI50 (HL-60): > 10 µM (inactive)
GI50 (HOP-62): 28 µM (inactive)
GI50 (HT-29): 87.7 µM (inactive)
GI50 (Hs-578T): 27.9 µM (inactive)
GI50 (IGROV-1): > 100 µM (inactive)
GI50 (K562): > 100 µM (inactive)
GI50 (KM12): > 100 µM (inactive)
GI50 (M14): > 100 µM (inactive)
GI50 (MCF7): > 100 µM (inactive)
GI50 (MDA-MB-231): > 100 µM (inactive)
GI50 (MDA-MB-435): > 100 µM (inactive)
GI50 (MDA-N): > 100 µM (inactive)
GI50 (MOLT-4): > 100 µM (inactive)
GI50 (Malme-3M): 45.9 µM (inactive)
GI50 (NCI-H226): > 100 µM (inactive)
GI50 (NCI-H23): > 100 µM (inactive)
GI50 (NCI-H460): > 100 µM (inactive)
GI50 (NCI-H522): > 100 µM (inactive)
GI50 (NCI/ADR-RES): > 100 µM (inactive)
GI50 (OVCAR-3): 34.4 µM (inactive)
GI50 (OVCAR-4): 8.53 µM (inactive)
GI50 (OVCAR-5): > 100 µM (inactive)
GI50 (OVCAR-8): 93.8 µM (inactive)
GI50 (PC-3): > 100 µM (inactive)
GI50 (RPMI-8226): 31.3 µM (inactive)
GI50 (RXF 393): > 100 µM (inactive)
GI50 (SF-295): 34.5 µM (inactive)
GI50 (SK-MEL-28): > 100 µM (inactive)
GI50 (SK-MEL-2): > 100 µM (inactive)
GI50 (SK-MEL-5): 62.7 µM (inactive)
GI50 (SK-OV-3): > 100 µM (inactive)
GI50 (SN12C): > 100 µM (inactive)
GI50 (SNB-19): > 100 µM (inactive)
GI50 (SNB-75): 19 µM (inactive)
GI50 (SR): > 100 µM (inactive)
GI50 (T47D): > 100 µM (inactive)
GI50 (U-251): 90.8 µM (inactive)
GI50 (UACC-62): 22.8 µM (inactive)
GI50 (UO-31): > 100 µM (inactive)

Cc1ccc(C(=C2Sc3ccccc3S2)C(=C2Sc3ccccc3S2)c2ccc(C)s2)s1
GI50 (786-0): > 100 µM (inactive)
GI50 (A498): > 100 µM (inactive)
GI50 (A549): > 100 µM (inactive)
GI50 (ACHN): > 100 µM (inactive)
GI50 (BT-549): > 100 µM (inactive)
GI50 (CAKI-1): > 100 µM (inactive)
GI50 (CCRF-CEM): > 100 µM (inactive)
GI50 (COLO 205): > 100 µM (inactive)
GI50 (DU-145): > 100 µM (inactive)
GI50 (EKVX): > 100 µM (inactive)
GI50 (HCC 2998): > 100 µM (inactive)
GI50 (HCT-116): > 100 µM (inactive)
GI50 (HCT-15): > 100 µM
GI50 (HL-60): 13.6 µM (inactive)
GI50 (HOP-62): > 100 µM (inactive)
GI50 (HT-29): > 100 µM (inactive)
GI50 (Hs-578T): > 100 µM (inactive)
GI50 (IGROV-1): > 100 µM (inactive)
GI50 (K562): > 100 µM (inactive)
GI50 (KM12): > 100 µM (inactive)
GI50 (M14): 76.2 µM (inactive)
GI50 (MCF7): > 100 µM (inactive)
GI50 (MDA-MB-231): 42.8 µM (inactive)
GI50 (MDA-MB-435): > 100 µM (inactive)
GI50 (MDA-N): > 100 µM (inactive)
GI50 (MOLT-4): > 100 µM (inactive)
GI50 (Malme-3M): > 100 µM (inactive)
GI50 (NCI-H226): > 100 µM (inactive)
GI50 (NCI-H23): > 100 µM (inactive)
GI50 (NCI-H522): > 100 µM (inactive)
GI50 (NCI/ADR-RES): > 100 µM (inactive)
GI50 (OVCAR-3): > 100 µM (inactive)
GI50 (OVCAR-4): > 100 µM (inactive)
GI50 (OVCAR-5): > 100 µM (inactive)
GI50 (OVCAR-8): > 100 µM (inactive)
GI50 (PC-3): > 100 µM (inactive)
GI50 (RPMI-8226): > 100 µM (inactive)
GI50 (RXF 393): > 100 µM (inactive)
GI50 (SF-268): > 100 µM (inactive)
GI50 (SF-295): > 100 µM (inactive)
GI50 (SK-MEL-28): > 100 µM (inactive)
GI50 (SK-MEL-2): > 100 µM (inactive)
GI50 (SK-MEL-5): > 100 µM (inactive)
GI50 (SK-OV-3): > 100 µM (inactive)
GI50 (SN12C): > 100 µM (inactive)
GI50 (SNB-19): > 100 µM (inactive)
GI50 (SNB-75): > 100 µM (inactive)
GI50 (SR): 47.5 µM (inactive)
GI50 (SW-620): > 100 µM (inactive)
GI50 (T47D): > 100 µM (inactive)
GI50 (TK-10): > 100 µM (inactive)
GI50 (U-251): > 100 µM (inactive)
GI50 (UACC-257): > 100 µM (inactive)
GI50 (UACC-62): > 100 µM (inactive)
GI50 (UO-31): > 100 µM (inactive)
